{
  "source": "patent US8618063B2",
  "about": "“Method for treating a synucleinopathy” (The Board of Trustees of the University of Illinois, priority 2008, dated 2013)",
  "key": {"[1]": {"test_system": "MPP+ effects on fast axonal transport", "test": "Isolated axoplasm: blocking of MPP+ effects on fast axonal transport", "type": "cell-based, squid Loligo pealeii", "settings": "for blocking of MPP+ effects on fast axonal transport: FIG. 5B", "protocol": "(§1) Axoplasm was extruded from giant axons of the squid Loligo pealeii (Marine Biological Laboratory) according to established methods (Brady, et al. (1985) Cell Motil. 5(2):81-101). Axons were 400-600 μm in diameter and provided ≈5 μl of axoplasm per axon. Wild-type α-synuclein or α-synuclein with point mutations associated with familial Parkinson's disease (Ala30Pro or Ala53Thr), MPP+, enzymes or inhibitors were diluted into X/2 buffer (175 mM potassium aspartate, 65 mM taurine, 35 mM betaine, 25 mM glycine, 10 mM HEPES, 6.5 mM MgCl2, 5 mM EGTA, 1.5 mM CaCl2, 0.5 mM glucose, pH 7.2) supplemented with 2-5 mM ATP and 20 μl of this mix was added to perfusion chambers (Brady, et al. (1985) supra). Preparations were analyzed on a ZEISS AXIOMAT with a 100×, 1.3 na objective, and DIC optics. Hamamatsu Argus 20 and Model 2400 CCD camera were used for image processing and analysis. Organelle velocities were measured with a Photonics Microscopy C2117 video manipulator (Hamamatsu).\n(§2) MPTP/MPP+ is the best characterized example of toxin-induced Parkinson's disease. The effects of MPP+ on fast axonal transport were examined in axoplasm as was dynein phosphorylation in cells. […] Based on reports that MPP+ could activate caspase3 (Turmel, et al. (2001) Mov. Disord. 16:185-9) and that caspase3 can activate a PKC by proteolytic cleavage (Kaul, et al. (2003) Eur. J. Neurosci. 18:1387-401), the ability of a caspase3 inhibitor to block effects of MPP+ on fast axonal transport was evaluated. […] Further, perfusion with Caspase 3 affected retrograde transport in a manner similar to PKC and MPP+ (retrograde transport=1.462±0.016 μm/sec)."}, "[2]": {"test_system": "Ala30Pro mutant α-synuclein induced failure of neurotransmission", "test": "Squid giant synapse: prevention of Ala30Pro α-synuclein induced failure of neurotransmission", "type": "cell-based", "settings": "co-injection / coperfusion with Ala30Pro α-synuclein", "protocol": "(§3) If they both work by activating PKC and increasing retrograde transport, they might affect availability of synaptic vesicle components in presynaptic terminals. Accordingly, either wild-type α-synuclein, Ala30Pro α-synuclein, or MPP+ were injected into the presynaptic side of the squid giant synapse as described for synaptic vesicles and synapsin (McGuinness, et al. (1989) J. Neurosci. 9:4138-4149; Llinas, et al. (1989) Proc. Nat. Acad. Sci. USA 86:5656-5660). This preparation has been used to evaluate the effects of reagents on presynaptic function by injecting, then stimulating the presynaptic side while recording intracellularly on both pre- and post-synaptic sides (Llinas, et al. (2004) Proc. Natl. Acad. Sci. USA 101:17855-60; Sugimori, et al. (1998) Neuroscience 86:39-51)."}, "[3]": {"test_system": "α-synuclein mutant Ala30Pro effects on fast axonal transport", "test": "Isolated axoplasm: blocking of mutant α-synuclein (Ala30Pro) effects on fast axonal transport", "type": "cell-based, squid Loligo pealeii", "settings": "coperfused with α-synuclein mutant Ala30Pro, FIG. 3", "protocol": "as §1\nAccordingly, these inhibitors were coperfused with pathological α-synuclein mutant Ala30Pro and fast axonal transport was monitored. […] Similarly, the effects of α-synuclein mutant Ala30Pro could be blocked by a PKCmu peptide substrate (FIG. 3B) and an inhibitor of Src-Family Tyrosine Kinases (PP2) (FIG. 3C)."}, "[4]": {"test_system": "DIC phosphorylation", "test": "Labeling studies with MPP+ treated cortical neurons", "type": "cell-based", "protocol": "One mCi ^32P phosphate (ICN) was added per dish and incubated for 4 hours. Medium was discarded, cells homogenized in 1 ml of ROLB buffer and processed accordingly to standard methods (Morfini, et al. (2004) supra). Axoplasms were prepared as for video microscopy, but 1 mCi of γ-^32P-ATP was added. After 50 minutes incubation, axoplasms were homogenized in ROLB buffer. A 10 μl aliquot of lysate was precipitated with 15% TCA and radioactivity incorporated into protein determined by scintillation counting. Aliquots of equal counts were used for kinesin immunoprecipitation with 10 μg of 74.1 antibody and Protein G-agarose beads (Pierce). Immunoprecipitates were separated by SDS-PAGE, dried and exposed in a PHOSPHORIMAGER cassette, then scanned and quantified on a TYPHOON (Amersham/Molecular Dynamics).\nas §2"}, "[5]": {"test_system": "MPP+ induced failure of neurotransmission", "test": "Squid giant synapse: prevention of MPP+ induced failure of neurotransmission", "type": "cell-based", "settings": "co-injection with MPP+", "protocol": "as §3"}, "[6]": {"test_system": "PKC", "test": "PKC activity in axoplasm", "type": "biochemical, squid", "protocol": "In the analysis disclosed herein, 3-4 axoplasms were triturated in KB buffer (10 mM HEPES, pH 7.4, 10 mM MgCl2, 1 mM DTT) and aliquoted. Individual reactions with corresponding in vitro translated AR constructs were started by adding radiolabeled ATP to 100 μM. Reactions were performed in 50 μl, incubated for 20 minutes at room temperature and stopped with 50 μl of 2× sample buffer. Lysates were separated by SDS-PAGE and analyzed by autoradiography."}, "[7]": {"test_system": "fast axonal transport", "test": "Motility studies in isolated axoplasm: effect of perfused substance on fast axonal transport", "type": "cell-based, squid Loligo pealeii", "settings": "substance perfused alone into isolated axoplasm", "protocol": "as §1"}, "[8]": {"test_system": "neurotransmission at squid giant synapse", "test": "Squid giant synapse: neurotransmission after presynaptic injection", "type": "cell-based", "settings": "injected into presynaptic side of squid giant synapse; observed up to 90 minutes", "protocol": "as §3"}},
  "data": [
    {"smiles": "COC(=O)CC[C@H](NC(=O)[C@H](CC(=O)OC)NC(=O)OCc1ccccc1)C(=O)N[C@H](C(=O)N[C@@H](CC(=O)OC)C(=O)CF)C(C)C", "note": "[Caspase3 Inhibitor II]", "values": [
      {"measurement": "blocking of MPP+ effects on fast axonal transport", "setting": "[1]", "result": "completely block"},
      {"measurement": "blocking of MPP+ effects on fast axonal transport", "setting": "[1]; listed as caspase3 inhibitor II", "result": "blocked"},
      {"measurement": "anterograde transport rate in presence of MPP+ and inhibitor", "setting": "[1]; coperfused with MPP+", "result": "1.527±0.019", "unit": "μm/sec"},
      {"measurement": "retrograde transport rate in presence of MPP+ and inhibitor", "setting": "[1]; coperfused with MPP+", "result": "1.187±0.019", "unit": "μm/sec"},
      {"measurement": "prevention of Ala30Pro α-synuclein effect on neurotransmission", "setting": "[2]", "result": "not effective"},
      {"measurement": "blocking of familial Parkinson's disease mutant α-synuclein (Ala30Pro) effects on fast axonal transport", "setting": "[3]; listed as Caspase inhibitor", "result": "ineffective"},
      {"measurement": "blocking of familial Parkinson's disease mutant α-synuclein (Ala30Pro) effects on fast axonal transport", "setting": "[3]; listed as inhibitors of Caspase 3", "result": "not effective"},
      {"measurement": "blocking of MPP+ induced increase in DIC phosphorylation", "setting": "[4]; MPP+ treated cortical neurons", "result": "blocked"},
      {"measurement": "prevention of MPP+ induced failure of neurotransmission", "setting": "[5]", "result": "prevented"}
    ]},
    {"smiles": "C[n+]1ccc(-c2ccccc2)cc1", "note": "[MPP+]", "values": [
      {"measurement": "PKC activity in axoplasm", "setting": "[6]", "result": "activated PKC activity"},
      {"measurement": "retrograde transport rate", "setting": "[7]; controls 1.2 μm/sec", "result": "1.461±0.023", "unit": "μm/sec"},
      {"measurement": "anterograde transport rate", "setting": "[7]; controls 1.6 μm/sec", "result": "1.272±0.0032", "unit": "μm/sec"},
      {"measurement": "effect on neurotransmission, in words", "setting": "[8]", "result": "failure of neurotransmission"},
      {"measurement": "DIC phosphorylation", "setting": "[4]; cortical neurons treated with substance alone", "result": "increased DIC phosphorylation"}
    ]}
  ]
}
